In PubChem BioAssay (NCI):
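48-hour exposure; five concentrations; linearly interpolated endpoints. TGI denotes the concentration required for complete inhibition of growth.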

Experiments:
Test in all cases: inhibition of tumour cell growth, NCI panel, 48 h
A549 NSCLC = test system: A549 NSCLC
ACHN renal = test system: ACHN renal
COLO 205 colon = test system: COLO 205 colon
EKVX NSCLC = test system: EKVX NSCLC
HCT-15 colon = test system: HCT-15 colon
HL-60(TB) leukemia = test system: HL-60(TB) leukemia
HOP-62 NSCLC = test system: HOP-62 NSCLC
HOP-92 NSCLC = test system: HOP-92 NSCLC
IGROV1 ovarian = test system: IGROV1 ovarian
LOX IMVI melanoma = test system: LOX IMVI melanoma
M14 melanoma = test system: M14 melanoma
NCI-H226 lung = test system: NCI-H226 lung
NCI-H460 lung = test system: NCI-H460 lung
OVCAR-4 ovarian = test system: OVCAR-4 ovarian
OVCAR-5 ovarian = test system: OVCAR-5 ovarian
PC-3 prostate = test system: PC-3 prostate
SK-OV-3 ovarian = test system: SK-OV-3 ovarian
UO-31 renal = test system: UO-31 renal
CAKI-1 renal = test system: CAKI-1 renal

| Compound | TGI (A549 NSCLC) [µM] | TGI (ACHN renal) [µM] | TGI (COLO 205 colon) [µM] | TGI (EKVX NSCLC) [µM] | TGI (HCT-15 colon) [µM] | TGI (HL-60(TB) leukemia) [µM] | TGI (HOP-62 NSCLC) [µM] | TGI (HOP-92 NSCLC) [µM] | TGI (IGROV1 ovarian) [µM] | TGI (LOX IMVI melanoma) [µM] | TGI (M14 melanoma) [µM] | TGI (NCI-H226 lung) [µM] | TGI (NCI-H460 lung) [µM] | TGI (OVCAR-4 ovarian) [µM] | TGI (OVCAR-5 ovarian) [µM] | TGI (PC-3 prostate) [µM] | TGI (SK-OV-3 ovarian) [µM] | TGI (UO-31 renal) [µM] | TGI (CAKI-1 renal) [µM] |
| --- | --- | --- | --- | --- | --- | --- | --- | --- | --- | --- | --- | --- | --- | --- | --- | --- | --- | --- | --- |
| COC(=O)C(Cc1ccccc1)NP(=O)(O)OCC1OC(n2cc(Br)c(=O)[nH]c2=O)CC1O (configuration not stated) | > 100 | > 100 | > 100 | > 100 | > 100 | > 100 | > 100 | > 100 | > 100 | > 100 | > 100 | > 100 | > 100 | > 100 | > 100 | > 100 | > 100 | > 100 | – |
| CC1=NN(c2cccc(Cl)c2)C(=N/c2nc3ccccc3s2)/C1=C\c1ccc(Cl)cc1 | – | 58.9 | – | > 100 | 28.9 | 54.5 | 54.5 | 36.1 | 33.1 | 34 | 52.2 | 43.8 | 34.3 | – | 40.4 | 31.3 | 95.3 | 46.3 | – |
| CC(=O)OCC1=C(C(=O)O)N2C(=O)C(NC(=O)CSc3ccncc3)C2SC1 (configuration not stated) | > 100 | > 100 | > 100 | > 100 | > 100 | > 100 | > 100 | > 100 | > 100 | > 100 | > 100 | > 100 | > 100 | – | > 100 | > 100 | > 100 | > 100 | > 100 |
| CC(C)Oc1c(O)c2c3c(oc(=O)n3C=CC2c2ccccc2)c1OC(C)C (configuration not stated) | 92.1 | – | 60.1 | 74 | 33.7 | 91.4 | > 100 | > 100 | 83.1 | > 100 | 41.4 | > 100 | 35.1 | > 100 | > 100 | 57.1 | > 100 | 37.2 | 67.7 |
| Cc1c(C)c(C)c(-n2c(=O)n(C)c(=O)n2-n2c(=O)n(C)c(=O)n2-c2c(C)c(C)c(C)c(C)c2C)c(C)c1C | > 100 | – | > 100 | > 100 | > 100 | 68.7 | – | > 100 | > 100 | > 100 | > 100 | > 100 | > 100 | > 100 | > 100 | > 100 | > 100 | > 100 | > 100 |
| C/C(=C(/C)c1ccc(O)cc1)c1ccc(O)cc1 | > 100 | > 100 | > 100 | 88.2 | > 100 | 81.4 | > 100 | 91.6 | > 100 | – | > 100 | > 100 | > 100 | – | > 100 | > 100 | > 100 | > 100 | > 100 |
| CC[C@@]1(O)C(=O)OCc2c1cc1n(c2=O)Cc2c-1nc1ccccc1c2/C=N\NC(=O)C(N)CO (some centres not stated) | > 100 | – | > 100 | > 100 | > 100 | > 21 | 9.35 | 50.5 | > 100 | 6.15 | 7.51 | 23.2 | 25.3 | > 100 | > 100 | > 100 | > 100 | 11 | > 27.2 |
| CC(=O)C1(Cc2cccc3ccccc23)S(=O)(=O)OCCOS1(=O)=O | – | 38 | 30.8 | 32.6 | 41.6 | 41.4 | 44.8 | 48.4 | 15.1 | 25.7 | 56.7 | 35.3 | 34 | 75.9 | 32.5 | 29.3 | 8.9 | 29.3 | 30.1 |
| CC(=O)N1C(OC(C)C)CC(C)N1c1ccccc1 (configuration not stated) | > 10 | > 10 | > 10 | > 10 | > 10 | > 10 | > 10 | > 10 | > 10 | > 10 | > 10 | > 10 | > 10 | > 10 | > 10 | > 10 | – | – | > 10 |
| CN1C2=C(CC3=C1CC(C)(C)CC3=O)C(=O)CC(C)(C)C2 | > 100 | > 100 | – | > 100 | > 100 | > 100 | – | > 100 | > 100 | > 100 | > 100 | > 100 | > 100 | > 100 | > 100 | > 100 | > 100 | > 100 | > 100 |
| COc1ccc(CCCCl)c(C2=NCCc3cc(OC)c(OC)cc32)c1 | > 100 | > 100 | 68.9 | > 100 | > 100 | > 100 | > 100 | > 100 | > 100 | – | > 100 | > 100 | > 100 | > 100 | > 100 | > 100 | > 100 | > 100 | > 100 |
| COC(=O)C1CC2CCC1(O[Si](C(C)C)(C(C)C)C(C)C)C(O)C2 (configuration not stated) | 33.4 | 80.4 | 71.2 | 33.6 | 30.6 | > 100 | 44.1 | – | 94 | 27.5 | 32.7 | 40.7 | > 100 | > 100 | 27.2 | 47.7 | > 100 | 30.2 | > 100 |
| CN1CC[C@]23c4c5ccc(O)c4O[C@H]2C(O)CC[C@@]3(O)[C@H]1C5 (some centres not stated) | > 100 | > 100 | > 100 | > 100 | > 100 | > 100 | > 100 | > 100 | > 100 | > 100 | > 100 | > 100 | – | > 100 | > 100 | > 100 | > 100 | > 100 | > 100 |
